In patent US20060177430A1, “Treatment of ocular disorders with ophthalmic formulations containing methylsulfonylmethane as a transport enhancer” (Chakshu Research Inc, priority 2002, published 2006):
Values after ≈ are worked out from the molar mass of the structure shown. Where two headings read alike, the source gives them in different places. Each block holds one molecule with its values, some of them ahead of it.

Key:
[1] = 30-minute time point; 8 μl eye drop on rat cornea; MSM versus PBS
[2] = Intestinal membrane permeation, MSM as enhancer, dexamethasone as active (Example 15); format: in vitro ADME
Source text: The same study design and experimental setup was used as described in the above experiments.

[3] = Dexamethasone solubility experiment with increasing MSM concentration (Example 16); format: physicochemical
[4] = Intestinal membrane permeation, MSM as enhancer, methylene blue as active (Example 8); format: in vitro ADME, porcine
Source text: In this experiment we selected methylene blue as the species for which permeation enhancement was desired. As tissue model for this experiment we selected porcine intestinal membrane. A small glass vial was filled with test solution and capped with the test membrane (tissue layer of defined thickness). The membrane tissue was hold in place with a rubber O-ring and a screw cap of defined surface area opening. This test unit was immersed into a large glass vial filled with receptor medium. From this large glass vial, small sample receptor medium volumes were periodically removed for analysis.

[5] = Bovine cornea penetration, MSM as enhancer, methylene blue as active (Example 9); format: in vitro ADME
Source text: In this example the same principal study design and protocol was used as described in Example 8. In this experiment, we selected methylene blue again as the species for which permeation enhancement was desired; however, as tissue model we selected bovine cornea. The bovine cornea was dissected from bovine eyes procured from slaughterhouses. We selected bovine cornea tissue as the test membrane because it is known to be a very difficult membrane to penetrate. Bovine cornea is about 4-6 times thicker than the human corneal membrane.

[6] = Methylene blue permeation through MSM pre-treated porcine intestinal membrane (Example 17); format: in vitro ADME
Description: This experiment was designed to investigate if there is a long-lasting enhancement effect of MSM, i.e., if there is a long-lasting disruption of membrane permeability after the formula was removed or washed-out after application.
Methylene blue was the active. The tissue model was porcine intestinal membrane, which was pre-treated. In this experiment all membranes were soaked for 24 hours in a MSM containing pre-treatment solution. […] After the 24-hour soaking period, “Test A” membrane was thoroughly washed, while “Test B” membrane was only briefly rinsed. Those membrane specimens were then mounted as described earlier on methylene blue containing glass vials, which were then immersed as described earlier into a larger glass vial containing receptor medium containing. Only the MSM-enhanced donor solution contained, besides methylene blue, also MSM for enhancement purposes. • Control: No MSM in 24-hour pre-treatment, no MSM enhancer in donor • Test A: 24-hour MSM pretreatment w/thorough washing, no MSM enhancer • Test B: 24-hour MSM pretreatment w/brief rinsing, no MSM enhancer • MSM-enhanced: No MSM in 24-hour pre-treatment, w/MSM enhancer

increase in amount in the aqueous humor in the presence of MSM [1]: approximately 5 fold
SMILES: O=C([O-])CN(CC(=O)[O-])[14CH2][14CH2]N(CC(=O)[O-])CC(=O)[O-].[Na+].[Na+].[Na+].[Na+] [^14C-EDTA, Ethylenediamine tetraacetic acid-1,2-^14C tetrasodium]

increase on the diffusion rate ([2]; 27 mg MSM/ml): 25% | permeation increase over control ([2]; 200 mg MSM/mL): approximately 50% | solubility ([3]; MSM concentration 250 mg/mL): 45 mg/100 mL | solubility change ([3]; MSM concentration of 30 mg/mL): not significantly increased | solubility ([3]; MSM solution, aqueous with cosolvent or surfactant or cyclodextrin, MSM 30 mg/ml, read-out: Solubility of Dexamethasone): 160 µg/mL (≈ 408 µM) | solubility ([3]; MSM solution, aqueous with cosolvent or surfactant or cyclodextrin, MSM 50 mg/ml, read-out: Solubility of Dexamethasone): 175 µg/mL (≈ 446 µM) | solubility ([3]; MSM solution, aqueous with cosolvent or surfactant or cyclodextrin, MSM 100 mg/ml, read-out: Solubility of Dexamethasone): 190 µg/mL (≈ 484 µM) | solubility ([3]; MSM solution, aqueous with cosolvent or surfactant or cyclodextrin, MSM 150 mg/ml, read-out: Solubility of Dexamethasone): 270 µg/mL (≈ 688 µM) | solubility ([3]; MSM solution, aqueous with cosolvent or surfactant or cyclodextrin, MSM 200 mg/ml, read-out: Solubility of Dexamethasone): 340 µg/mL (≈ 866 µM) | solubility ([3]; MSM solution, aqueous with cosolvent or surfactant or cyclodextrin, MSM 250 mg/ml, read-out: Solubility of Dexamethasone): 450 µg/mL (≈ 1150 µM) | water solubility ([3]; room temperature, no MSM): 10 mg/100 mL
SMILES: C[C@@H]1C[C@H]2[C@@H]3CCC4=CC(=O)C=C[C@]4(C)[C@@]3(F)[C@@H](O)C[C@]2(C)[C@@]1(O)C(=O)CO [dexamethasone]

enhancement factor of cumulative permeation when MSM is present in the donor solution ([4]; MSM 27 mg/mL versus control): ~2 | Absorbance at 668 nm of receptor medium (methylene blue permeation) ([4]; Time 0.55 Hr, Control: no MSM): 0.021 | Absorbance at 668 nm of receptor medium (methylene blue permeation) ([4]; Time 0.55 Hr, MSM 27 mg/mL in donor): 0.023 | Absorbance at 668 nm of receptor medium (methylene blue permeation) ([4]; Time 1.9 Hr, Control: no MSM): 0.061 | Absorbance at 668 nm of receptor medium (methylene blue permeation) ([4]; Time 1.9 Hr, MSM 27 mg/mL in donor): 0.176 | Absorbance at 668 nm of receptor medium (methylene blue permeation) ([4]; Time 2.9 Hr, Control: no MSM): 0.162 | Absorbance at 668 nm of receptor medium (methylene blue permeation) ([4]; Time 2.9 Hr, MSM 27 mg/mL in donor): 0.323 | Absorbance at 668 nm of receptor medium (methylene blue permeation) ([4]; Time 4 Hr, Control: no MSM): 0.234 | Absorbance at 668 nm of receptor medium (methylene blue permeation) ([4]; Time 4 Hr, MSM 27 mg/mL in donor): 0.433 | Absorbance at 668 nm of receptor medium (methylene blue permeation) ([4]; Time 5.7 Hr, Control: no MSM): 0.283 | Absorbance at 668 nm of receptor medium (methylene blue permeation) ([4]; Time 5.7 Hr, MSM 27 mg/mL in donor): 0.563 | Absorbance at 668 nm of receptor medium (methylene blue permeation) ([4]; Time 6.9 Hr, Control: no MSM): 0.408 | Absorbance at 668 nm of receptor medium (methylene blue permeation) ([4]; Time 6.9 Hr, MSM 27 mg/mL in donor): 0.738 | enhancement factor of cumulative permeation when MSM is present in the donor solution ([5]; MSM 27 mg/mL versus control): > 3 | lag time ([5]; MSM present in the donor solution): less than 12 hours | Absorbance @ 668 nm of receptor medium (methylene blue permeation) ([5]; Time 43.5 Hr, Control: no MSM): 0.024 | Absorbance @ 668 nm of receptor medium (methylene blue permeation) ([5]; Time 43.5 Hr, MSM 27 mg/mL in donor): 0.093 | Absorbance @ 668 nm of receptor medium (methylene blue permeation) ([5]; Time 52.75 Hr, Control: no MSM): 0.03 | Absorbance @ 668 nm of receptor medium (methylene blue permeation) ([5]; Time 52.75 Hr, MSM 27 mg/mL in donor): 0.13 | Absorbance @ 668 nm of receptor medium (methylene blue permeation) ([5]; Time 65 Hr, Control: no MSM): 0.035 | Absorbance @ 668 nm of receptor medium (methylene blue permeation) ([5]; Time 65 Hr, MSM 27 mg/mL in donor): 0.163 | Absorbance @ 668 nm of receptor medium (methylene blue permeation) ([5]; Time 75.5 Hr, Control: no MSM): 0.042 | Absorbance @ 668 nm of receptor medium (methylene blue permeation) ([5]; Time 75.5 Hr, MSM 27 mg/mL in donor): 0.195 | Absorbance @ 668 nm of receptor medium (methylene blue permeation) ([5]; Time 89 Hr, Control: no MSM): 0.057 | Absorbance @ 668 nm of receptor medium (methylene blue permeation) ([5]; Time 89 Hr, MSM 27 mg/mL in donor): 0.213 | Absorbance @ 668 nm of receptor medium (methylene blue permeation) ([5]; Time 97.5 Hr, Control: no MSM): 0.076 | Absorbance @ 668 nm of receptor medium (methylene blue permeation) ([5]; Time 97.5 Hr, MSM 27 mg/mL in donor): 0.265 | lag time ([5]; without MSM): about 24 hours | permeation rate of enhanced solution relative to control ([6]; MSM 50 mg/mL in donor): approximately 2 times | permeation through MSM-pretreated membrane versus control ([6]; MSM pretreatment, brief rinsing, no MSM in donor): slightly higher | Absorbance @ 668 nm of receptor medium (methylene blue permeation) ([6]; Time 0.27, Control: no MSM pre-treatment, no MSM enhancer): 0.01 | Absorbance @ 668 nm of receptor medium (methylene blue permeation) ([6]; Time 0.27, Test A: MSM pretreatment w/thorough washing, no MSM enhancer): 0.01 | Absorbance @ 668 nm of receptor medium (methylene blue permeation) ([6]; Time 0.27, Test B: MSM pretreatment w/brief rinsing, no MSM enhancer): 0.019 | Absorbance @ 668 nm of receptor medium (methylene blue permeation) ([6]; Time 0.50, Control: no MSM pre-treatment, no MSM enhancer): 0.025 | Absorbance @ 668 nm of receptor medium (methylene blue permeation) ([6]; Time 0.50, MSM-enhanced: no pre-treatment, MSM 50 mg/mL in donor): 0.06 | Absorbance @ 668 nm of receptor medium (methylene blue permeation) ([6]; Time 0.50, Test A: MSM pretreatment w/thorough washing, no MSM enhancer): 0.031 | Absorbance @ 668 nm of receptor medium (methylene blue permeation) ([6]; Time 0.50, Test B: MSM pretreatment w/brief rinsing, no MSM enhancer): 0.041 | Absorbance @ 668 nm of receptor medium (methylene blue permeation) ([6]; Time 0.75, Control: no MSM pre-treatment, no MSM enhancer): 0.037 | Absorbance @ 668 nm of receptor medium (methylene blue permeation) ([6]; Time 0.75, Test A: MSM pretreatment w/thorough washing, no MSM enhancer): 0.043 | Absorbance @ 668 nm of receptor medium (methylene blue permeation) ([6]; Time 0.75, Test B: MSM pretreatment w/brief rinsing, no MSM enhancer): 0.055 | Absorbance @ 668 nm of receptor medium (methylene blue permeation) ([6]; Time 1.00, Control: no MSM pre-treatment, no MSM enhancer): 0.052 | Absorbance @ 668 nm of receptor medium (methylene blue permeation) ([6]; Time 1.00, MSM-enhanced: no pre-treatment, MSM 50 mg/mL in donor): 0.13 | Absorbance @ 668 nm of receptor medium (methylene blue permeation) ([6]; Time 1.00, Test A: MSM pretreatment w/thorough washing, no MSM enhancer): 0.064 | Absorbance @ 668 nm of receptor medium (methylene blue permeation) ([6]; Time 1.00, Test B: MSM pretreatment w/brief rinsing, no MSM enhancer): 0.079 | Absorbance @ 668 nm of receptor medium (methylene blue permeation) ([6]; Time 1.50, Control: no MSM pre-treatment, no MSM enhancer): 0.078 | Absorbance @ 668 nm of receptor medium (methylene blue permeation) ([6]; Time 1.50, MSM-enhanced: no pre-treatment, MSM 50 mg/mL in donor): 0.204 | Absorbance @ 668 nm of receptor medium (methylene blue permeation) ([6]; Time 1.50, Test A: MSM pretreatment w/thorough washing, no MSM enhancer): 0.089 | Absorbance @ 668 nm of receptor medium (methylene blue permeation) ([6]; Time 1.50, Test B: MSM pretreatment w/brief rinsing, no MSM enhancer): 0.118 | Absorbance @ 668 nm of receptor medium (methylene blue permeation) ([6]; Time 2.00, Control: no MSM pre-treatment, no MSM enhancer): 0.114 | Absorbance @ 668 nm of receptor medium (methylene blue permeation) ([6]; Time 2.00, MSM-enhanced: no pre-treatment, MSM 50 mg/mL in donor): 0.281 | Absorbance @ 668 nm of receptor medium (methylene blue permeation) ([6]; Time 2.00, Test A: MSM pretreatment w/thorough washing, no MSM enhancer): 0.125 | Absorbance @ 668 nm of receptor medium (methylene blue permeation) ([6]; Time 2.00, Test B: MSM pretreatment w/brief rinsing, no MSM enhancer): 0.16 | Absorbance @ 668 nm of receptor medium (methylene blue permeation) ([6]; Time 24.00, Control: no MSM pre-treatment, no MSM enhancer): 0.92 | Absorbance @ 668 nm of receptor medium (methylene blue permeation) ([6]; Time 24.00, MSM-enhanced: no pre-treatment, MSM 50 mg/mL in donor): 1.393 | Absorbance @ 668 nm of receptor medium (methylene blue permeation) ([6]; Time 24.00, Test A: MSM pretreatment w/thorough washing, no MSM enhancer): 0.939 | Absorbance @ 668 nm of receptor medium (methylene blue permeation) ([6]; Time 24.00, Test B: MSM pretreatment w/brief rinsing, no MSM enhancer): 1.112
SMILES: CN(C)c1ccc2nc3ccc(=[N+](C)C)cc-3sc2c1 [methylene blue]
remaining enhancement after thorough washing of MSM-pretreated membrane ([6]; MSM pretreatment, thorough washing, no MSM in donor): no detectable remaining enhancement effect
